These results are taken from PMC10859961, “Ir(III) Half-Sandwich Photosensitizers with a π-Expansive Ligand for Efficient Anticancer Photodynamic Therapy” (Journal of Medicinal Chemistry, 2024).

Molecules are shown by their SMILES. Like-named read-outs stand apart in the source and are kept apart here.

One series has as its system A549 cells. Put plainly: Superoxide anion production (ROS-ID Superoxide Detection Kit). As to conditions: 10 nM, photoactivated with blue light. It is filed as cell-based, human. As to the method:
The types of ROS generated by the treatments were also investigated. Superoxide anion (O2^•–) production was monitored using the ROS-ID Superoxide Detection Kit (Enzo Life Sciences), which contains a cell-permeable probe that selectively emits orange fluorescence upon reacting with O2^•–. Following the treatments, cells were harvested and incubated with the probe for 30 min at 37 °C. Fluorescence emission from 1 × 10^4 cells was measured by flow cytometry (Ex/Em: 550/620 nm) and compared to that of control untreated cells. In addition, hydrogen peroxide (H2O2) generation was measured using the Hydrogen Peroxide Assay Kit (Cell-based) (Abcam). […] After 1 h of incubation at 37 °C, the median fluorescence of 1 × 10^4 cells was determined by flow cytometry (Ex/Em = 490/520 nm) and compared to that of control cells. All experiments were conducted in triplicate.

The test system of a further series is HeLa. Put plainly: CyQUANT cell viability assay, dark or blue light. It counts as cell-based, human. As to conditions: for IC50: 48 h; for IC50 / PI (IC50,dark/IC50,light): CyQUANT; for PI (IC50,dark/IC50,light): blue light 460 nm. How it is done:
(§1) Cells were cultured in 96-well plates at a density of 3000 (A549), 2500 (HeLa), or 5000 (PC-3, 1BR.3.G, and MRC-5) cells per well in cell culture medium and allowed to attach for 24 h. Solutions of the complexes at different concentrations were prepared for cell treatments. In all cases, the solid compounds were weighed using an analytical balance (Mettler Toledo AX205DR) to ensure precise measurements. Subsequently, 5 mM solutions were prepared using DMSO. Solutions were then diluted in water to reach a concentration of 1 mM and then, aliquots were taken and diluted in culture medium to obtain solutions ranging from 0 to 50 μM. […] The cells were treated with these solutions in dark conditions or following the photoactivation protocol (see below). 48 h later the treatments were removed, and cells were washed with phosphate-buffered saline (PBS).
(§2) Initially, the effect of the complexes on the cell viability was determined by the 3-(4,5-dimethylthiazol-2-yl)-2,5-diphenyltetrazolium bromide (MTT) assay.[147] The cells were incubated for 2 h with 100 μL of culture medium together with 10 μL of MTT (Sigma-Aldrich) at 0.5 mg/mL. After discarding the medium, DMSO was added to each well to dissolve the purple formazan crystals. The absorbance of each well was determined on a Multiscan Plate Reader (Synergy 4, Biotek, Winooski) at a wavelength of 570 nm. Cell viability was also assessed using the CyQUANT Direct Cell Proliferation Assay (Thermo Fisher Scientific), following the manufacturer’s instructions. Briefly, after the treatments, the cells were washed with PBS, and an equal volume of culture medium and CyQUANT mix was added to each well. The plates were then incubated for 1 h at 37 °C. Subsequently, the fluorescence intensity was bottom read using a Multiscan Plate Reader (Synergy 4, Biotek, Winooski) with excitation and emission filters of 485 and 528 nm, respectively. In both assays, at least three replicates were measured for each treatment. The concentration that reduces the cell viability by 50% (IC50) was established using the Gen5 software (BioTek). Three independent experiments were carried out for each compound. […] The phototoxicity index (PI = IC50,dark/IC50,light) was determined.
(§3) To assess the photodynamic activity of the complexes, cells were incubated with the complexes for 4 h to enable their intracellular accumulation. The cells were then irradiated with light with a wavelength of 460 nm (blue), 530 nm (green), or 655 nm (red) for 1 h using a LED system (LuxLight) with an effective power of 6.7 mW cm^–2, which provides a total light dose of 24.1 J cm^–2. The LED system was positioned at 25 mm from the cell culture plates.

A further series concerns A549. In words: CyQUANT cell viability assay, dark or blue light. It is filed as cell-based, human. As to conditions: for PI/Dose / IC50 / PI (IC50,dark/IC50,light): A549; for PI/Dose: 460 nm, dose 24.1 J cm‐2, PI from CyQUANT; for IC50: 48 h; for IC50 / PI (IC50,dark/IC50,light) / photoselectivity: IC50,light in A549 lower than IC50,dark in MRC-5 / phototoxicity indexes: CyQUANT; for PI (IC50,dark/IC50,light): blue light 460 nm; for photoselectivity: IC50,light in A549 lower than IC50,dark in MRC-5: A549 blue light vs nonirradiated MRC-5 lung fibroblasts; for phototoxicity indexes: three cancer cell lines (A549, HeLa, PC-3), blue light. How it is done:
as §1, §2, §3

A short description of series [1]: 1O2 quantum yield determination with ABDA. As to conditions: H2O/DMSO (95:5); 470 nm blue light. How it is done:
Fresh stock air-equilibrated solutions of photosensitizers 1–2 and 7–8 (1.00 × 10^–3 M) and ABDA (6.00 × 10^–4 M) in H2O/DMSO (95:5) were prepared. In a quartz cell, 0.50 mL of ABDA solution, 0.03 mL of complex solution, and 2.47 mL of H2O/DMSO (95:5) were mixed to prepare a final solution with 1.00 × 10^–4 M ABDA and 1.00 × 10^–5 M complex. The final solutions were studied by recording UV–vis absorption spectra at room temperature under blue light irradiation (λexc = 470 nm, “Medusa” photoreactor) for 30 s irradiation intervals during a total exposure period of 5 min. Absorption UV–vis spectra were recorded after every irradiation interval.
The consumption of ABDA probe was measured by monitoring its absorbance intensity decrease at 402 nm with irradiation time. ^1O2 generation quantum yield (ϕΔ) was calculated from eq 1 using Rose Bengal or [Ru(bpy)3]^2+ as reference. In this case, the ϕΔ values of the references in H2O/DMSO (95:5) are 0.76 for Rose Bengal[73] and 0.18 for [Ru(bpy)3]Cl2.[136] The reproducibility of the results was confirmed by performing each experiment three times.

Series [2] in a line: Lipophilicity by the shake flask method. It is filed as physicochemical. As to conditions: 1-octanol/water; for logD9.2: carbonate–bicarbonate buffer pH 9.2. How it is done: The partition coefficients of complexes 5, 6, 7, and 8 were determined by the standard “shake flask” method.[37],[84],[85] Octanol-saturated water (OSW) and water-saturated octanol (WSO) were prepared using analytical grade 1-octanol and ultrapure water. The complexes were dissolved in WSO and molar extinction coefficient was determined. Then, 2 mL of 25 μg/mL complex in WSO was shaken with 2 mL of OSW at 1500 rpm for 6 h at room temperature. To separate the phases, centrifugation was done at 4000 rpm for 10 min. The absorbance of WSO phase before and after shaking was measured. The absorbance of WSO before mixing minus the absorbance of WSO after mixing corresponds to the absorbance of the complex in OSW. The distribution coefficients (log Do/w) of the complexes were obtained from the ratio of the complexes present in 1-octanol and the aqueous phase (eq 3). Each experiment was repeated three times. To avoid protonation in complexes 5 and 6, a carbonate–bicarbonate buffer at pH 9.2 in OSW was used. [drawing 24] 3 where A1-oct corresponds to the absorbance of WSO phase and Atotal is the actual concentration of the WSO before shaking.

Setting [3] is: blue light 460 nm 1 h (24.1 J cm^–2), read-out: IC50,light.

As for `Cc1c(C)c(C)[c-](C)c1C.F[B-](F)(F)F.c1ccc2cc3nc4c5ccc[n+]6c5c5[c](cccc5c4nc3cc2c1)[Ir]6[n+]1cc[nH]c1` [complex 4, [(η^5-C5Me5)Ir(Im)(pbpn)]BF4], in the series on A549 cells, the “superoxide anion (O2•–) increase in mean fluorescence” value (“superoxide anion (O2•–) increase” below) was found to be 2.4 fold. In addition, the IC50 (as a rule, the midpoint of a concentration-inhibition curve) with HeLa (setting [3]) stood at 4.2 ± 0.9 nM; with HeLa (dark, read-out: IC50,dark), 1550 ± 300 nM; with A549 (setting [3]), 1 ± 0.4 nM; in the series with A549 (dark, read-out: IC50,dark) it was 2100 ± 600 nM. Also, the “PI (IC50,dark/IC50,light)” value in the series with HeLa is reported as 370; in the series on A549, 2034. For the same compound, the values for the PI/Dose in the series on A549 (listed as 4) and in the series with A549 (listed as Complex 4) were 84 and 84.4, respectively. Further, the “photoselectivity: IC50,light in A549 lower than IC50,dark in MRC-5” value with A549 was 2480 times. In addition, the phototoxicity indexes entry with A549 is recorded as “approximately 1000”.

Consider `Cc1c(C)c(C)[c-](C)c1C.F[B-](F)(F)F.c1ccc(Cn2cc[n+]([Ir]3[c]4cccc5c6nc7ccccc7nc6c6ccc[n+]3c6c45)c2)cc1` [complex 7, [(η^5-C5Me5)Ir(bzIm)(pbpz)]BF4], for which the “1O2 generation quantum yield (ϕΔ), ABDA” value in series [1] stood at 0.0526. Further, in series [2], the logP – broadly, the decadic logarithm of the partition coefficient of the neutral form, usually between octanol and water – came out at 1.65 ± 0.16.

In turn, `Cc1c(C)c(C)[c-](C)c1C.F[B-](F)(F)F.c1ccc2nc3c4ccc[n+]5c4c4[c](cccc4c3nc2c1)[Ir]5[n+]1ccn(CCN2CCCCC2)c1` [complex 5, [(η^5-C5Me5)Ir(Imepip)(pbpz)]BF4] came in with a logD9.2 in series [2] of 1.10 ± 0.10.

As to `Cc1c(C)c(C)[c-](C)c1C.F[B-](F)(F)F.c1ccc2cc3nc4c5ccc[n+]6c5c5[c](cccc5c4nc3cc2c1)[Ir]6[n+]1ccn(CCN2CCCCC2)c1` [complex 6, [(η^5-C5Me5) Ir(Imepip)(pbpn)]BF4], in the series on A549 cells, the “superoxide anion (O2•–) increase” value amounted to 2.8 fold. The compound further had a logD9.2 in series [2] of 1.39 ± 0.07. Moreover, the PI/Dose in the series with HeLa (460 nm, dose 24.1 J cm‐2, PI from CyQUANT) is 42.7. Also, the IC50 is 0.7 ± 0.2 nM in the series with HeLa (setting [3]); 700 ± 270 nM in the series with HeLa (dark, read-out: IC50,dark); 0.4 ± 0.2 nM in the series on A549 (setting [3]); 330 ± 200 nM in the series with A549 (dark, read-out: IC50,dark). Also, the “PI (IC50,dark/IC50,light)” value in the series with HeLa was found to be 1031; with A549, 911. In the series with A549, the “photoselectivity: IC50,light in A549 lower than IC50,dark in MRC-5” value amounted to 1750 times. Also, the phototoxicity indexes result with A549 was “approximately 1000”.

As to `Cc1c(C)c(C)[c-](C)c1C.[Cl][Ir]1[c]2cccc3c4nc5ccccc5nc4c4ccc[n+]1c4c23` [complex 1, [(η^5-C5Me5)IrCl(pbpz)]], in series [1], the “1O2 generation quantum yield (ϕΔ), ABDA” value was 0.1913.

For `Cc1c(C)c(C)[c-](C)c1C.F[B-](F)(F)F.c1ccc(Cn2cc[n+]([Ir]3[c]4cccc5c6nc7cc8ccccc8cc7nc6c6ccc[n+]3c6c45)c2)cc1` [complex 8, [(η^5-C5Me5)Ir(bzIm)(pbpn)]BF4], the “superoxide anion (O2•–) increase” value in the series on A549 cells was found to be 2.6 fold. Also, the “1O2 generation quantum yield (ϕΔ), ABDA” value in series [1] turned out to be 0.4986. Further, the logP in series [2] came out at 1.13 ± 0.03. Further, the IC50 in the series on HeLa (setting [3]) was 0.8 ± 0.2 nM; in the series on HeLa (dark, read-out: IC50,dark) it was 510 ± 100 nM; with A549 (setting [3]), 0.4 ± 0.3 nM; with A549 (dark, read-out: IC50,dark), 500 ± 200 nM. Moreover, the “PI (IC50,dark/IC50,light)” value worked out at 622 with HeLa and 1260 with A549. Also, the PI/Dose in the series on A549 is given as 52.3. Moreover, the “photoselectivity: IC50,light in A549 lower than IC50,dark in MRC-5” value with A549 is 1700 times. In addition, in the series on A549, the phototoxicity indexes result is on record as “approximately 1000”.
